Experimental data published in ChEMBL document CHEMBL1142821, “Identification of potent type I MetAPs inhibitors by simple bioisosteric replacement. Part 2: SAR studies of 5-heteroalkyl substituted TCAT derivatives” (Bioorg Med Chem Lett, 2005).

Tests used:
[1] = molecular target: T1, Methionine aminopeptidase 1 (Saccharomyces cerevisiae S288c, UniProt Q01662); test: Inhibitory concentration against ScMetAP1 enzyme activity
T1 sequence (Q01662 whole entry): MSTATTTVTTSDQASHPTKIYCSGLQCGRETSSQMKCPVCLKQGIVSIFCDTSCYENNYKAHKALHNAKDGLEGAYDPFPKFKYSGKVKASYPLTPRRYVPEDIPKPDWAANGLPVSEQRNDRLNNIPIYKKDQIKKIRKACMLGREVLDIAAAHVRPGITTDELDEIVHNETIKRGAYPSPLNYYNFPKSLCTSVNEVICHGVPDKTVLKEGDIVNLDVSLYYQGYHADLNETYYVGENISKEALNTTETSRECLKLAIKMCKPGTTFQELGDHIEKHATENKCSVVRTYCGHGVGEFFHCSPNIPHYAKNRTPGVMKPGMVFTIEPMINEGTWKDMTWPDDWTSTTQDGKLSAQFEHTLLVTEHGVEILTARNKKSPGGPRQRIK

[2] = molecular target: T2, Methionine aminopeptidase (Escherichia coli K-12, UniProt P0AE18); test: Inhibitory concentration against EcMetAP1 enzyme activity
T2 sequence (P0AE18 whole entry): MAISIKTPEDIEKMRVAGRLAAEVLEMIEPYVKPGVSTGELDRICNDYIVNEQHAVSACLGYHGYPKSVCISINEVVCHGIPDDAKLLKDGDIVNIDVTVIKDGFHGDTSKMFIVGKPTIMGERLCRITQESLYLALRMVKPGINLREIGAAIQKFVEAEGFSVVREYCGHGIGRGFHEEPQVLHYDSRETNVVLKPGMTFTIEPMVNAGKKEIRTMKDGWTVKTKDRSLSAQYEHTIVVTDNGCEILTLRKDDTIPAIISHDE

SMILES	IC50 [1] [nM]	IC50 [2] [nM]
COC(Cc1scnc1C(=O)Nc1nccs1)c1ccccc1F (centres undefined)	270	34
CO[C@H](Cc1scnc1C(=O)Nc1nccs1)c1ccccc1	450	36
CC(=O)OCCc1scnc1C(=O)Nc1nccs1	17900	310
O=C(Nc1nccs1)c1ncsc1CCOCc1ccccc1	4250	90
COCCc1scnc1C(=O)Nc1nccs1	6430	150
O=C(Cc1ccccc1)OCCc1scnc1C(=O)Nc1nccs1	6040	33
O=C(Nc1nccs1)c1ncsc1CCO	10400	470
Cc1ccc(S(=O)(=O)OCCc2scnc2C(=O)Nc2nccs2)cc1	3720	1530
COC(Cc1scnc1C(=O)Nc1nccs1)C1CCCCC1 (centres undefined)	400	54
COC(Cc1scnc1C(=O)Nc1nccs1)c1ccccc1Cl (centres undefined)	230	170
O=C(Nc1nccs1)c1ncsc1CCOC(=O)C1CCCC1	800	140
COC(Cc1scnc1C(=O)Nc1nccs1)c1cccc(F)c1 (centres undefined)	340	37
COC(Cc1scnc1C(=O)Nc1nccs1)CC(C)C (centres undefined)	500	90
COc1ccccc1C(Cc1scnc1C(=O)Nc1nccs1)OC (centres undefined)	570	35
O=C(OCCc1scnc1C(=O)Nc1nccs1)c1ccccc1	3080	41
COC(c1ccccc1)c1scnc1C(=O)Nc1nccs1 (centres undefined)	750	61

SMILES	IC50 [1] [nM]	IC50 [2] [nM]
CO[C@@H](Cc1scnc1C(=O)Nc1nccs1)c1ccccc1	450	66
CCOC(Cc1scnc1C(=O)Nc1nccs1)C(C)C (centres undefined)	150	28
O=C(Nc1nccs1)c1ncsc1CN1CCOCC1	1760	55
O=C(Nc1nccs1)c1ncsc1CN1CCCCC1	75	10
O=C(COCc1ccccc1)OCCc1scnc1C(=O)Nc1nccs1	550	130
COC(Cc1scnc1C(=O)Nc1nccs1)c1ccc(F)cc1 (centres undefined)	390	57
CCCCC(Cc1scnc1C(=O)Nc1nccs1)OC (centres undefined)	450	100
O=C(Nc1nccs1)c1ncsc1CN1CCCC1	350	25
COc1ccc(C(Cc2scnc2C(=O)Nc2nccs2)OC)cc1 (centres undefined)	310	23
COC(Cc1scnc1C(=O)Nc1nccs1)c1ccc(Cl)cc1 (centres undefined)	570	33
COC(C)(C)Cc1scnc1C(=O)Nc1nccs1	3210	69
COCc1scnc1C(=O)Nc1nccs1	7530	97
COC(Cc1scnc1C(=O)Nc1nccs1)c1ccccc1 (centres undefined)	440	43
COC(Cc1scnc1C(=O)Nc1nccs1)c1cccc(Cl)c1 (centres undefined)	520	90
O=C(Nc1nccs1)c1ncsc1CCN1CCCCC1	410	45
COc1cc(C(=O)OCCc2scnc2C(=O)Nc2nccs2)cc(OC)c1OC	1560	160
